Among the data in patent US9714249B2 (Novartis AG, priority 2013, dated 2017) are IC50 values, retold here.

One assay addresses BRD4 (His-Brd4(44-477)) (Homo sapiens (Human), UniProt O60885). Briefly: TR-FRET in-vitro binding assay for BRD4. To be noted: acetyl-histone H4 peptide. Here is the method: All assays were performed in 384 well microtiter plates. Each assay plate contained 8-point serial dilutions for 40 test compounds, plus 16 high- and 16 low controls. Liquid handling and incubation steps were done on an Innovadyne Nanodrop Express equipped with a robotic arm (Thermo CatX, Perkin Elmer/Caliper Twister II) and an incubator (Liconic STX40, Thermo Cytomat 2C450). The assay plates were prepared by addition of 50 nl per well of compound solution in 90% DMSO HummingBird nanodispenser (Zinsser Analytic). […] Reactions were incubated at 30° C. for 35 minutes. […] After 35 minutes incubation at 30° C., plates were measured in a Perkin Elmer EnVision multilabel reader.
(§1) Test compounds were dissolved in DMSO (10 mM) and transferred into 1.4 mL flat bottom or V-shaped Matrix tubes carrying a unique 2D matrix. The stock solutions were stored at […] if not used immediately. For the test procedure the vials were defrosted and identified by a scanner whereby a working sheet was generated that guided the subsequent working steps. Compound dilutions were made in 96 well plates. This format enabled the assay of maximally 40 individual test compounds at 8 concentrations (single points) including 4 reference compounds, if desired (known BET inhibitors from the prior art, for this and other assays of the type disclosed herein). The dilution protocol included the production of “pre-dilution plates”, “master plates” and “assay plates”.
Pre-dilution plates: 96 polypropylene well plates were used as pre-dilution plates. A total of 4 pre-dilution plates were prepared including 10 test compounds each on the plate positions A1-A10, one standard compound at A11 and one DMSO control at A12. All dilution steps were done on a HamiltonSTAR robot. […] These plates were used directly for the assay which was performed in a total volume of 13.55 μL. […] Cell Growth Inhibition Assay

A further assay concerns the target BRD2 (His-Brd2(60-472)) (Homo sapiens (Human), UniProt P25440). In words: TR-FRET in-vitro binding assay for BRD2. To be noted: acetyl-histone H4 peptide. As to the method: All assays were performed in 384 well microtiter plates. Each assay plate contained 8-point serial dilutions for 40 test compounds, plus 16 high- and 16 low controls. Liquid handling and incubation steps were done on an Innovadyne Nanodrop Express equipped with a robotic arm (Thermo CatX, Perkin Elmer/Caliper Twister II) and an incubator (Liconic STX40, Thermo Cytomat 2C450). The assay plates were prepared by addition of 50 nl per well of compound solution in 90% DMSO HummingBird nanodispenser (Zinsser Analytic). The assay was started by stepwise addition of 4.5 μl per well of bromo domain protein (50 mM HEPES, pH 7.5, 0.005% Tween20, 0.1% BSA, 50 mM NaCl, 45 nM His-Brd2(60-472) or 45 nM His-Brd3(20-477) or 45 nM His-Brd4(44-477) all proteins produced in-house) and 4.5 μl per well of peptide solution (50 mM HEPES, pH 7.5, 0.005% Tween20, 0.1% BSA, 50 mM NaCl, 60 nM acetyl-histone H4 (AcK 5, 8, 12, 16) (Biosyntan GmbH)). Reactions were incubated at 30° C. for 35 minutes. Subsequently 4.5 μl per well detection mix (50 mM HEPES, pH 7.5, 0.005% Tween20, 0.1% BSA, 50 mM NaCl, 3 nM Eu-labeled anti-His6 antibody, 21 nM streptavidin-allophycocyanin) were added. After 35 minutes incubation at 30° C., plates were measured in a Perkin Elmer EnVision multilabel reader. Concentrations causing 50% inhibition (1050) values were determined from percent inhibition values at different compound concentrations by non-linear regression analysis.
as §1
Pre-dilution plates: 96 polypropylene well plates were used as pre-dilution plates. A total of 4 pre-dilution plates were prepared including 10 test compounds each on the plate positions A1-A10, one standard compound at A11 and one DMSO control at A12. All dilution steps were done on a HamiltonSTAR robot. Master plates: 30 μL of individual compound dilutions including standard compound and controls of the 4 “pre-dilution plates” were transferred into a 384 “master plate” including the following concentrations 10000, 3003, 1000, 300, 100, 30, 10 and 3 μM, respectively in 90% of DMSO. Assay plates: Identical “assay plates” were then prepared by pipetting 50 nL each of compound dilutions of the “master plates” into 384-well “assay plates” by means of a HummingBird 384-channel dispenser. These plates were used directly for the assay which was performed in a total volume of 13.55 μL. This led to a final compound concentration of 37, 11, 3.7, 1.1, 0.37, 0.11, 0.037 and 0.011 μM and a final DMSO concentration of 0.37% in the assay. Cell Growth Inhibition Assay
(In TR-FRET formats the signal depends on donor and acceptor labels being close together.)

Sequence of BRD2 (His-Brd2(60-472)) (P25440 60-472, species assumed): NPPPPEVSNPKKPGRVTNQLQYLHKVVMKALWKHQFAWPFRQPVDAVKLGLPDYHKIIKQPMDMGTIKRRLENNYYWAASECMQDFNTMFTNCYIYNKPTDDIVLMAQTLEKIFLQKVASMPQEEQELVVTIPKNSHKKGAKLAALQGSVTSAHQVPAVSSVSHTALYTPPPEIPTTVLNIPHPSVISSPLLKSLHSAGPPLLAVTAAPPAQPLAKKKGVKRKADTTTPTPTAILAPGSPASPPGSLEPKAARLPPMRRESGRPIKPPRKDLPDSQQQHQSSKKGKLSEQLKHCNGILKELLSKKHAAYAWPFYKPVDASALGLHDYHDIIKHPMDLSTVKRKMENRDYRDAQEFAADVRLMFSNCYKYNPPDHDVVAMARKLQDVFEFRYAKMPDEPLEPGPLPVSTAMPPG

Turning to `Cc1nn(-c2cccnc2F)c2c1C(=O)N(c1cc(C)c(=O)n(C)c1)C2c1ccc(Cl)cc1` (centres unmarked) [Example 19, 6-(4-chlorophenyl)-5-(1,5-dimethyl-6-oxo-1,6-dihydropyridin-3-yl)-1-(2-fluoropyridin-3-yl)-3-methyl-5,6-dihydropyrrolo[3,4-c]pyrazol-4(1H)-one], the figures for the concentration for half-maximal inhibition (IC50) at BRD4 (His-Brd4(44-477)) and at BRD2 (His-Brd2(60-472)) were 100 nM and 80 nM, respectively.

For the compound `COc1ccc(-n2nc3c(c2C)C(=O)N(c2cc(C)c(=O)n(C)c2)C3c2ccc(Cl)cc2)cn1` (centres unmarked) [Example 20a, 6-(4-chlorophenyl)-5-(1,5-dimethyl-6-oxo-1,6-dihydropyridin-3-yl)-2-(6-methoxypyridin-3-yl)-3-methyl-5,6-dihydropyrrolo[3,4-c]pyrazol-4(2H)-one], the figures for the half-maximal inhibitory concentration (IC50) at BRD4 (His-Brd4(44-477)) and at BRD2 (His-Brd2(60-472)) were 62 nM and 61 nM, respectively.

As to `COc1ccc(-n2nc(C)c3c2C(c2ccc(Cl)cc2)N(c2cc(C)c(=O)n(C)c2)C3=O)cn1` (centres unmarked) [Example 20b, 6-(4-chlorophenyl)-5-(1,5-dimethyl-6-oxo-1,6-dihydropyridin-3-yl)-1-(6-methoxypyridin-3-yl)-3-methyl-5,6-dihydropyrrolo[3,4-c]pyrazol-4(1H)-one], the IC50 – broadly, the midpoint of a concentration-inhibition curve – on BRD4 (His-Brd4(44-477)) was determined as 56 nM; at BRD2 (His-Brd2(60-472)), 49 nM.

`COc1ncc(-n2nc(C)c3c2C(c2ccc(Cl)cc2)N(c2cc(C)c(=O)n(C)c2)C3=O)cn1` (centres unmarked) [Example 21a, 6-(4-chlorophenyl)-5-(1,5-dimethyl-6-oxo-1,6-dihydropyridin-3-yl)-1-(2-methoxypyrimidin-5-yl)-3-methyl-5,6-dihydropyrrolo[3,4-c]pyrazol-4(1H)-one]: the figures for the IC50 on BRD4 (His-Brd4(44-477)) and on BRD2 (His-Brd2(60-472)) were 71 nM and 63 nM, respectively.

As to `COc1ncc(-n2nc3c(c2C)C(=O)N(c2cc(C)c(=O)n(C)c2)C3c2ccc(Cl)cc2)cn1` (centres unmarked) [Example 21b, 6-(4-chlorophenyl)-5-(1,5-dimethyl-6-oxo-1,6-dihydropyridin-3-yl)-2-(2-methoxypyrimidin-5-yl)-3-methyl-5,6-dihydropyrrolo[3,4-c]pyrazol-4(2H)-one], the figures for the IC50 at BRD4 (His-Brd4(44-477)) and at BRD2 (His-Brd2(60-472)) were 110 nM and 100 nM, respectively.

On to `Cc1cc(N2C(=O)c3c(C4CC4)nn(-c4ccnn4C)c3[C@H]2c2ccc(Cl)cc2)cn(C)c1=O` [Example 22, (R)-6-(4-chlorophenyl)-3-cyclopropyl-5-(1,5-dimethyl-6-oxo-1,6-dihydropyridin-3-yl)-1-(1-methyl-1H-pyrazol-5-yl)-5,6-dihydropyrrolo[3,4-c]pyrazol-4(1H)-one], for which the IC50 is 140 nM on BRD4 (His-Brd4(44-477)) and 160 nM on BRD2 (His-Brd2(60-472)).

As to `Cc1cc(N2C(=O)c3c(C4CC4)n[nH]c3[C@H]2c2ccc(Cl)cc2)cn(C)c1=O` [Example 24, (R)-6-(4-chlorophenyl)-3-cyclopropyl-5-(1,5-dimethyl-6-oxo-1,6-dihydropyridin-3-yl)-5,6-dihydropyrrolo[3,4-c]pyrazol-4(1H)-one], the IC50 at BRD4 (His-Brd4(44-477)) stood at 73 nM; on BRD2 (His-Brd2(60-472)), 74 nM.

For the compound `COc1ncccc1-n1nc(C)c2c1[C@@H](c1ccc(Cl)cc1)N(c1cc(C)c(=O)n(C)c1)C2=O` [Example 25, (R)-6-(4-chlorophenyl)-5-(1,5-dimethyl-6-oxo-1,6-dihydropyridin-3-yl)-1-(2-methoxypyridin-3-yl)-3-methyl-5,6-dihydropyrrolo[3,4-c]pyrazol-4(1H)-one], the half-inhibitory concentration (IC50) at BRD4 (His-Brd4(44-477)) was 150 nM; at BRD2 (His-Brd2(60-472)), 130 nM.

Consider `COc1ncccc1-n1nc2c(c1C)C(=O)N(c1cc(C)c(=O)n(C)c1)[C@@H]2c1ccc(Cl)cc1` [Example 26, (R)-6-(4-chlorophenyl)-5-(1,5-dimethyl-6-oxo-1,6-dihydropyridin-3-yl)-2-(2-methoxypyridin-3-yl)-3-methyl-5,6-dihydropyrrolo[3,4-c]pyrazol-4(2H)-one], for which the half-inhibitory concentration (IC50) at BRD4 (His-Brd4(44-477)) amounted to 91 nM; on BRD2 (His-Brd2(60-472)), 110 nM.

For the compound `Cc1[nH]nc2c1C(=O)N(c1cc(Cl)c(=O)n(C)c1)[C@@H]2c1ccc(Cl)cc1` [Example 28, (R)-5-(5-chloro-1-methyl-6-oxo-1,6-dihydropyridin-3-yl)-6-(4-chlorophenyl)-3-methyl-5,6-dihydropyrrolo[3,4-c]pyrazol-4(2H)-one], the 50% inhibitory concentration (IC50) came to 160 nM on BRD4 (His-Brd4(44-477)) and 170 nM on BRD2 (His-Brd2(60-472)).
